# Data published in patent US8012985B2, “Compounds with antiparasitic activity and medicines containing same” (Centre National de la Recherche Scientifique (C.N.R.S.), priority 2002, dated 2011).
# Counter-ions that a name gives are not always drawn. Like-named read-outs stand apart in the source and are kept apart here. Marks after values point to notes of the source that are not given here.
# Columns and labels:
# [1] = tested on: P. falciparum; test: Antimalarial activity in vitro against P. falciparum (Desjardins test, [3H] hypoxanthine incorporation); assay type: cell-based; conditions: growth in vitro of P. falciparum
# From the text: FIG. 1 represents the antimalarial activity of compound 6.0 as a function of the drug concentration, according to Desjardins' test, (Desjardins R. E. et al., Antimicrob. Agents Chemother. 1979, 16, 710-718).
# (§1) A. Antimalarial Activity In Vitro Against P. Falciparum and In Vivo in Mice Infected with P. Vinckei
# (§2) Tables 4 and 5 hereafter show the results of the IC50 values in μM and of ED50 (mg/kg) obtained with compounds of the invention.
# (§3) The IC50 is the concentration which inhibits 50% of the growth in vitro of P. falciparum (the IC50 measurements were determined according to the method of Desjardins in which the incorporation of [^3H] hypoxanthine in the nucleic acids serves as a cell viability index) (FIG. 1), the ED50 is the effective dose for inhibiting 50% of the growth in vivo of P. vinckei according to a 4-day suppression test.
# [2] = set-up: species or system mice; conditions: mouse, in vivo
# Procedure: The results are given hereafter of the pharmacokinetic parameters after administration by intra-peritoneal or oral route in mice for compound 6.0.
# For determination of the serum level, bio-tests were used ex vivo: briefly, the medicament is administered to the animal, then blood samples are repeatedly taken. The sera are decomplemented for 30 minutes at 56° C. The active metabolite content is then determined by incubation of different concentrations (dichotomous dilution) of each serum, in the presence of suspensions of erythrocytes infected with P. falciparum, according to the method of DESJARDINS with [^3H] hypoxanthine.
# The results are expressed in IS50, which corresponds to the percentage of serum (containing an active metabolite) capable of inhibiting 50% of the growth of P. falciparum.
# This value is then converted into serum concentration (usually expressed in ng/ml), by testing the active compound directly (without passing via the animal), on the same suspension infected with P. falciparum and by determining its IC50 value (in ng/ml) [serum count ═IC50] (in ng/ml)×100/SI50 (in %)].
# The results are expressed in log (serum count of medicaments), as a function of time, which allows the evaluation of the half-time for the distribution to the serum compartment t1/2(d); the half-time for the elimination of the serum compartment (t1/2(e)); of C0, corresponding to the serum count extrapolated to the origin in the elimination phase; of AUC (which indicates the quantity of drug circulating in the bloodstream); and the relative bio-availability in the administration method by oral route, versus the method by intraperitoneal route [AUC (po)/AUC (ip)] which signifies the degree of absorption by oral route.
# [3] = tested on: P. vinckei; test: Antimalarial activity in vivo in mice infected with P. vinckei, 4-day suppression test; conditions: for ED50: Plasmodium vinckei, 96 h
# Procedure: as §1, §2, §3
# TI corresponds to the therapeutic index, TI=LD50 (semi chronic)/ED50; ip: intraperitoneal administration; po: per os.
# [4] = tested on: B. canis; test: Antibabesia activity in vitro against B. canis; assay type: cell-based
# Procedure: (§4) The products 6.0, 22.0, and 2.0 were also evaluated in vitro for their activities against Babesia divergens and B. canis.
# [5] = tested on: Babesia divergens; test: Antibabesia activity in vitro against Babesia divergens; assay type: cell-based
# Procedure: as §4
# [6] = ip, tested after 2 administrations of the compound per day for 4 days
# [7] = po, tested after 2 administrations of the compound per day for 4 days
compound,measurement,setting,value
"1,12-bis[N,N′-(benzyloxycarbonyl)amidinyl]dodecane [Compound 1.5]",IC50,[1],400 nM
"C(CCCCCCNC1=NCCC1)CCCCCNC1=NCCC1 [Compound 21.0, 1,12-bis[N,N′-(3,4-dihydro-2H-pyrrol-5-yl)amino]dodecane]",C0,"[2]; ip, 15 mg/kg",24 ng/mL
same,t1/2,"[2]; ip, 15 mg/kg",approximately 35 hours
same,C0,"[2]; po, 100 mg/kg",16 ng/mL
same,apparent t1/2,"[2]; po, 100 mg/kg",36 h
same,IC50,[1],3.8 nM
same,ED50 (mg/Kg) P. vinckei,[3]; [6],ip = 2.8* mg/Kg
same,ED50 (mg/Kg) P. vinckei,[3]; [7],po = 85* mg/Kg
"NC(CCCCCCCCCCCCC(N)=NOC(=O)c1ccccc1)=NOC(=O)c1ccccc1 [Compound 1.23, 1,12-bis(N,N′-benzoyloxyamidinyl)dodecane]",IC50,[1],1100 nM
"CC(C)(C)OC(=O)N=C(NCCCCCCCCCCCCNC(=NC(=O)OC(C)(C)C)NC(=O)OC(C)(C)C)NC(=O)OC(C)(C)C [Compound 12.2, 1,12-bis(N,N′-di-tert-butyloxycarbonylguanidino)dodecane]",IC50,[1],1900 nM
"N=C(CCCCCCCCCCCCC(=N)N1CCCC1)N1CCCC1 [Compound 2.0, 2 HCl, 1,14-di(pyrrolidin-1-yl)tetradecane-1,14-diimine]",IC50,[4],< 50 nM
same,IC50,[5],< 50 nM
"Cc1noc(=O)n1CCCCCCCCCCCCn1c(C)noc1=O [Compound 20.14, 1,12-bis[N,N′(3-methyl-1,2,4-oxadiazol-5(4H)-one)-3-yl]dodecane]",IC50,[1]; Plasmodium falciparum,7100 nM
same,ED50,"[3]; ip, 4-day suppression test",9 mg/kg
same,ED50,"[3]; po, 4-day suppression test",62 mg/kg
"O=S1NC(CCCCCCCCCCCCC2=NOS(=O)N2)=NO1 (stereo not drawn) [Compound 1.28, 1,12-bis[(1.2,3,5-oxathiadiazol-2(3H)-oxide)-4-yl]dodecane]",IC50,[1],200 nM
"O=C(OCc1ccccc1)N1CCN=C1CCCCCCCCCCCCC1=NCCN1C(=O)OCc1ccccc1 [Compound 6.5, 1,12-bis[N,N′-(benzyloxycarbonyl)imidazolin-2-yl]dodecane]",IC50,[1],12000 nM
same,ED50 (mg/Kg) P. vinckei,[3]; [6],ip < 20* mg/Kg
same,ED50 (mg/Kg) P. vinckei,[3]; [7],po ≈ 100* mg/Kg
"CC(=O)ON=C(N)CCCCCCCCCCCCC(N)=NOC(C)=O [Compound 1.22, 1,12-bis(N,N′-acetoxyamidinyl)dodecane]",IC50,[1],1400 nM
"CCOC(=O)ON=C(N)CCCCCCCCCCCCC(N)=NOC(=O)OCC [Compound 1.17, 1,12-bis(N,N′-ethoxycarbonyloxyamidinyl)dodecane]",IC50,[1],1200 nM
"O=c1[nH]c(CCCCCCCCCCCCc2nsc(=O)[nH]2)ns1 [Compound 1.30, 1,12-bis[(1.2,4-thiadiazol-5(4H)-one)-3-yl]dodecane]",IC50,[1],20 nM
same,ED50 (mg/Kg) P. vinckei,"[3]; ip, 4-day suppression test",ip = 20 mg/Kg
"O=C(Oc1ccc(F)cc1)N1CCN=C1CCCCCCCCCCCCC1=NCCN1C(=O)Oc1ccc(F)cc1 [Compound 6.8, 1,12-bis[N,N′-(4-fluorophenylyloxycarbonyl)imidazolin-2-yl]dodecane]",IC50,[1],69500 nM
"NC(CCCCCCCCCCCCC(N)=NOC(=O)Oc1ccccc1)=NOC(=O)Oc1ccccc1 [Compound 1.19, 1,12-bis(N,N′-phenoxycarbonyloxyamidinyl)dodecane]",IC50,[1],3600 nM
"1,12-bis[N,N′-(isobutyloxycarbonyl)amidinyl]dodecane [Compound 1.4]",IC50,[1],500 nM
"CCOC(=O)NC(=N)CCCCCCCCCCCCC(=N)NC(=O)OCC [Compound 1.2, 1,12-bis[N,N′-(ethyloxycarbonyl)amidinyl]dodecane]",IC50,[1],300 nM
same,ED50 (mg/Kg) P. vinckei,"[3]; ip, 4-day suppression test",ip 33 mg/Kg
"CON=C(N)CCCCCCCCCCCCC(N)=NOC [Compound 1.16, 1,12-bis(N,N′-methoxyamidinyl)dodecane]",IC50,[1],6800 nM
"COC(=O)ON=C(N)CCCCCCCCCCCCC(N)=NOC(=O)OC [Compound 1.18, 1,12-bis(N,N′-methoxycarbonyloxyamidinyl)dodecane]",IC50,[1],1100 nM
"N=C1CCCN1CCCCCCCCCCCCN1CCCC1=N [Compound 24.0, 1,12-bis[N,N′-(2-iminopyrrolidinyl)]dodecane]",IC50,[1],4 nM
"O=c1[nH]c(CCCCCCCCCCCCc2noc(=O)[nH]2)no1 [Compound 1.27, 1,12-bis[(1.2,4-oxadiazol-5(4H)-one)-3-yl]dodecane]",IC50,[1],9200 nM
"N=C(CCCCCCCCCCCCC(=N)N1CCCCC1)N1CCCCC1 [Compound 3.0, 1,14-di(piperidin-1-yl)tetradecane-1,14-diimine]",IC50,[1]; Plasmodium falciparum,4.9 nM
"CC1(C)CN=C(NCCCCCCCCCCCCNC2=NCCC2)NC1 [25.0, 2 TFA]",IC50,[1],1.9 nM
"CCNC(=O)ON=C(N)CCCCCCCCCCCCC(N)=NOC(=O)NCC [Compound 1.24, 1,12-bis(N,N′-ethylcarbamoyloxyamidinyl)dodecane]",IC50,[1],200 nM
same,ED50 (mg/Kg) P. vinckei,"[3]; po, 4-day suppression test",po = 90 mg/Kg
"C(CCCCCCC1=NCCN1)CCCCCC1=NCCN1 [Compound 6.0, 1,12-bis(imidazolin-2-yl)dodecane]",IC50,[1],2 nM
same,ED50 (mg/Kg) P. vinckei,[3]; [6],ip = 34* mg/Kg
same,ED50 (mg/Kg) P. vinckei,[3]; [7],po = 62* mg/Kg
"CC(=N)NCCCCCCCCCCCCNC(C)=N [Compound 20.0, 1,12-bis(N,N′-acetamidinyl)dodecane]",IC50,[1],2 nM
same,ED50 (mg/Kg) P. vinckei,[3]; [6],ip = 2.3* mg/Kg
"NC(CCCCCCCCCCCCC(N)=NO)=NO [Compound 1.15, 1,12-bis(N,N′-hydroxyamidinyl)dodecane]",IC50,[1],3500 nM
same,ED50 (mg/Kg) P. vinckei,"[3]; po, 4-day suppression test",po = 120 mg/Kg
"1,12-bis(N,N′-methoxyacetamidinyl)dodecane [Compound 20.2]",IC50,[1],4350 nM
same,ED50 (mg/Kg) P. vinckei,"[3]; ip, 4-day suppression test",ip = 10 mg/Kg
same,ED50 (mg/Kg) P. vinckei,"[3]; po, 4-day suppression test",po = 110 mg/Kg
"CS(=O)(=O)OCC(=N)NCCCCCCCCCCCCNC(=N)COS(C)(=O)=O [Compound 20.12, 1,12-bis(N,N′-methylsulfonyloxyacetamidinyl)dodecane]",ED50 (mg/Kg) P. vinckei,"[3]; ip, 4-day suppression test",ip = 4.7 mg/Kg
same,ED50 (mg/Kg) P. vinckei,"[3]; po, 4-day suppression test",po = 42 mg/Kg
